According to patent publication US20230345986A1, “CONJUGATED DIYNES AND THEIR USE AS FLAVOR MODIFIERS” (Firmenich SA, priority 2020, published 2023):

Tests used:
[1] = Sensory testing for cooling/burning (tasting of compound in water solution); format: in vivo; settings: for taste attributes: 20 mg/L in water solution
Description: At 2 mg/L, Compound 130 was tasteless.
At 39.2 mg/L, the tingling effect was weak. […] At 2 mg/L, Compound 101 was tasteless.

[2] = tested on: panel of 20 taste testers; assay: Sensory testing for salt enhancement (taste panel, sodium chloride solution); format: in vivo; design: key to Difference (salt enhancement effect relative to the same salt solution without the enhancer): None: No effect; +: Weak; ++: Moderate; +++: Strong
Description: Compounds 101 and 130 were evaluated for their salt-enhancement effects by a panel of 20 taste testers. The test compounds were added to solutions (0.25 wt %) sodium chloride, and tested for their sale enhancement effect relative to the same salt solution without the enhancer.

[3] = 10 ppm test compound in 0.25 wt % sodium chloride solution
[4] = 20 ppm test compound in 0.25 wt % sodium chloride solution

Which results are given for `C#CC#CCCCCC(=O)N1CCCCC1` [Compound 101, nona-6,8-diynoic acid piperidide]?
taste description ([1]; 2 mg/L in water solution): tasteless; taste attributes [1]: astringent, bitter, herbal, earthy and green; tingling effect ([1]; 39.2 mg/L in water solution): weak; taste description ([1]; 125 mg/L in water solution): tingling (mid intensity), bitter, metallic, astringent and triggered an uncomfortable feeling in the throat when swallowed; Difference (salt enhancement effect relative to the same salt solution without the enhancer) [2, 3]: None; Remarks (salt enhancement effect) [2, 3]: No effect; Difference (salt enhancement effect relative to the same salt solution without the enhancer) [2, 4]: +; Remarks (salt enhancement effect) [2, 4]: Weak

For `C#CC#CCC/C=C/C=C/C(=O)N1CCCCC1` [Compound 130, (E,E)-2,4-undecadien-8,10-diynoic acid piperidide], which taste description ([1]; 2 mg/L in water solution) is on record?
Its taste description is “tasteless”.

And the taste attributes [1]?
The taste attributes was “astringent, bitter, salty, earthy, herbal, and cooling, but no warm and hot sensation was perceived”.

And the taste description ([1]; 42 mg/L in water solution)?
Its taste description is “long-lasting warm, hot, weak cooling after taste, as well as bitter and astringent”.

What about the “Difference (salt enhancement effect relative to the same salt solution without the enhancer)” value [2, 3] of the same compound?
The value was “++”.

What about the “Remarks (salt enhancement effect)” value [2, 3] of the same compound?
The value was “Moderate”.

And the “Difference (salt enhancement effect relative to the same salt solution without the enhancer)” value [2, 4]?
The value was “++”.

And the “Remarks (salt enhancement effect)” value [2, 4]?
The value was “Moderate”.
